In experiment [1] the target is T1, MMP-1FL (full-length interstitial collagenase) (Homo sapiens, UniProt P03956).
T1 sequence (P03956 100-469): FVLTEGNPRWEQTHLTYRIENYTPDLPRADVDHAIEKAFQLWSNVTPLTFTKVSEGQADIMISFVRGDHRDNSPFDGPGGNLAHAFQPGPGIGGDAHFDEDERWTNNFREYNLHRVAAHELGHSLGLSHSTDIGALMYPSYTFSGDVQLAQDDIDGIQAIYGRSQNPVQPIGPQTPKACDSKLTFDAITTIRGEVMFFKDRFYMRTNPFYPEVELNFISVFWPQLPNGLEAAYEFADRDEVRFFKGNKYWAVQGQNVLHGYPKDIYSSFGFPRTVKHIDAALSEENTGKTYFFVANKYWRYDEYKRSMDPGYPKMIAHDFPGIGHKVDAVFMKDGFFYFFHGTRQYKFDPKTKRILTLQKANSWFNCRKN
Description: Thiopeptolide hydrolysis assay, MMP-1. It is filed as biochemical. To be noted: read-out: MMP01 IC50.

In experiment [2] the target is MMP-3CD (catalytic domain of stromelysin) (Homo sapiens, UniProt P08254). The experiment can be described thus: Thiopeptolide hydrolysis assay, MMP-3.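 Also: inhibition of thiopeptolide substrate (100 µM) cleavage by the MMP-3 catalytic domain, detected with DTNB at pH 6.0 with CaCl2, hydrolysis compared against runs lacking inhibitor.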 It is filed as biochemical. The note with it: read-out: MMP03 IC50.
In experiment [3] the target is MMP-13CD (catalytic domain of collagenase 3) (Homo sapiens, UniProt P45452). The experiment can be described thus: Thiopeptolide hydrolysis assay, MMP-13.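 Also: inhibition of enzymatic thiopeptolide substrate cleavage (100 µM) in pH 6.0 MES buffer with CaCl2 and DTNB, comparing hydrolysis with versus without inhibitor.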

Where two headings read alike, the source gives them in different places.

Sequence of MMP-3CD (catalytic domain of stromelysin) (P08254 100-272 limits assumed): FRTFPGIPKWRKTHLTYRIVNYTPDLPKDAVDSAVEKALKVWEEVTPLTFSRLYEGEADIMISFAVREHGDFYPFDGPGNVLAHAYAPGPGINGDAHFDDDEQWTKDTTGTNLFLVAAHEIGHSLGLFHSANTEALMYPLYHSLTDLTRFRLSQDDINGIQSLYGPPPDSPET

Take `COc1ccc(CNC(=O)c2ccc(OC)c(C(=O)NCc3ccc(OC)cc3)c2)cc1`: the IC50 in experiment [1] (Table II) is over 100 µM; in experiment [2] (Table II), over 100 µM; in experiment [3] (MMP13 IC50 (nM), Table II), 280 nM.
For `COC(=O)COc1ccc(C(=O)OCc2ccccc2)cc1C(=O)OCc1ccccc1`, the half-inhibitory concentration (IC50) in experiment [1] (Table II) was over 100 µM; in experiment [2] (Table II), over 100 µM; in experiment [3] (MMP13 IC50 (nM), Table II) it was 9250 nM.
On to `COC(=O)c1ccc(Cn2c(=O)c(C)c3sc(C(=O)NCc4cccc(F)c4)cn3c2=O)cc1`, for which the IC50 in experiment [1] (Table 1b) is over 30 µM; in experiment [2] (Table 1b) it was 19 µM; in experiment [3] (MMP13 IC50 (μM), Table 1b) it was 71.5 nM.
As to `COC(=O)c1ccc(Cn2c(=O)c(C)c3sc(C(=O)NCc4ccc(F)cc4)cn3c2=O)cc1`, the IC50 in experiment [1] (Table 1b) is over 100 µM; in experiment [2] (Table 1b) it was 17 µM; in experiment [3] (MMP13 IC50 (μM), Table 1b), 18 nM.
In the same order, the values of `COC(=O)c1ccc(Cn2c(=O)c(C)c3sc(C(=O)NCc4ccc(OC)cc4)cn3c2=O)cc1` are over 100 µM, 65 µM and 10.6 nM.
In the same order, the values of `Cc1c(=O)n(Cc2ccc(C(=O)O)cc2)c(=O)n2cc(C(=O)NCc3ccc(F)cc3)sc12` are over 100 µM, 68 µM and 2.2 nM.
On to `COc1cccc(CNC(=O)c2cccc(C(=O)NCc3ccc(C(=O)O)cc3)c2)c1`, for which the IC50 is over 100 µM in experiment [1] (Table II); over 100 µM in experiment [2] (Table II); 77 nM in experiment [3] (MMP13 IC50 (nM), Table II).
Regarding `O=C(OCc1ccccc1)C1C[S+]([O-])c2cc(=O)n(Cc3ccccc3)c(=O)n21` (stereo not drawn), the 50% inhibitory concentration (IC50) in experiment [1] (Table 1b) is over 100 µM; in experiment [2] (Table 1b), 23 µM; in experiment [3] (MMP13 IC50 (μM), Table 1b) it was 72 nM.
`O=C(NCc1ccncc1)C1Cn2c(cc(=O)n(Cc3ccccc3)c2=O)S1` (stereo not drawn): the IC50 in experiment [1] (Table 1b) was over 100 µM; in experiment [2] (Table 1b), over 100 µM; in experiment [3] (MMP13 IC50 (μM), Table 1b), 590 nM.
As for `COc1ccc(CNC(=O)c2cn3c(=O)n(Cc4ccccc4)c(=O)c(C=O)c3s2)cc1`, the IC50 is over 100 µM in experiment [1] (Table 1b); 11 µM in experiment [2] (Table 1b); 22.4 nM in experiment [3] (MMP13 IC50 (μM), Table 1b).
In the same order, the values of `Cc1c(=O)n(Cc2ccccc2)c(=O)n2cc(C(=O)NCc3ccccc3)sc12` are over 100 µM, 51 µM and 94 nM.
`COc1cccc(CNC(=O)c2cn3c(=O)n(Cc4ccccc4)c(=O)c(C)c3s2)c1`: the IC50 is over 30 µM in experiment [1] (Table 1b); 22 µM in experiment [2] (Table 1b); 6 nM in experiment [3] (MMP13 IC50 (μM), Table 1b).
In the same order, the values of `Cc1c(=O)n(Cc2ccccc2)c(=O)n2cc(C(=O)NCc3ccc(Cl)c(Cl)c3)sc12` are over 30 µM, 20 µM and 265 nM.
For `COc1ccc(CNC(=O)c2cn3c(=O)n(Cc4ccccc4)c(=O)c(C)c3s2)cn1`, in that order: over 30 µM, over 10 µM and 17.5 nM.
`Cc1c(=O)n(Cc2ccccc2)c(=O)n2cc(C(=O)NCc3ccc(F)cc3)sc12`: the IC50 is over 30 µM in experiment [1] (Table 1b); over 100 µM in experiment [2] (Table 1b); 24.5 nM in experiment [3] (MMP13 IC50 (μM), Table 1b).
In the same order, the values of `Cc1cccc(CNC(=O)c2cn3c(=O)n(Cc4ccccc4)c(=O)c(C)c3s2)c1` are over 100 µM, 19 µM and 25 nM.
For the compound `Cc1c(=O)n(Cc2ccccc2)c(=O)n2cc(C(=O)NCc3ccc(C(F)(F)F)cc3)sc12`, the concentration for half-maximal inhibition (IC50) is over 30 µM in experiment [1] (Table 1b); over 100 µM in experiment [2] (Table 1b); 2210 nM in experiment [3] (MMP13 IC50 (μM), Table 1b).
In the same order, the values of `COc1ccc(CNC(=O)c2cn3c(=O)n(Cc4ccccc4)c(=O)c(C)c3s2)cc1F` are over 100 µM, 12 µM and 25 nM.
As for `Cc1c(=O)n(Cc2ccccc2)c(=O)n2cc(C(=O)NCc3cccc(F)c3)sc12`, the IC50 in experiment [1] (Table 1b) was over 30 µM; in experiment [2] (Table 1b), over 30 µM; in experiment [3] (MMP13 IC50 (μM), Table 1b), 120 nM.
With `Cc1ccc(CNC(=O)c2cn3c(=O)n(Cc4ccccc4)c(=O)c(C)c3s2)cc1`, the IC50 was over 30 µM in experiment [1] (Table 1b); 19 µM in experiment [2] (Table 1b); 225 nM in experiment [3] (MMP13 IC50 (μM), Table 1b).
For the compound `Cc1c(=O)n(Cc2ccccc2)c(=O)n2cc(C(=O)NCc3ccc(Cl)cc3)sc12`, the concentration for half-maximal inhibition (IC50) in experiment [1] (Table 1b) is over 30 µM; in experiment [2] (Table 1b), 23 µM; in experiment [3] (MMP13 IC50 (μM), Table 1b) it was 86.9 nM.
Turning to `Cc1c(=O)n(Cc2ccccc2)c(=O)n2cc(C(=O)NCc3ccc(F)c(F)c3)sc12`, the IC50 in experiment [1] (Table 1b) was over 100 µM; in experiment [2] (Table 1b), over 30 µM; in experiment [3] (MMP13 IC50 (μM), Table 1b) it was 29 nM.
With `COc1ccc(CNC(=O)c2cn3c(=O)n(Cc4ccccc4)c(=O)c(C)c3s2)cc1`, the IC50 was over 30 µM in experiment [1] (Table 1b); 16 µM in experiment [2] (Table 1b); 21.7 nM in experiment [3] (MMP13 IC50 (μM), Table 1b).
